{
  "source": "the supplement of paper PMC10307832",
  "assay_in_all_cases": "relative viability (nuclei count vs DMSO), 5 days (fraction); higher = more cells survive",
  "key": {"[1]": {"compound": "C1=CC=C(C(=C1)C2=CC=C(C=C2)C3=CSC4=C3C(=C(C(=O)N4)C#N)O)O + CC1(C)CCC(c2ccc(Cl)cc2)=C(CN2CCN(c3ccc(C(=O)NS(=O)(=O)c4ccc(N[C@H](CCN5CCOCC5)CSc5ccccc5)c(S(=O)(=O)C(F)(F)F)c4)cc3)CC2)C1 [Navitoclax] (partner 0.5 µM)", "in_short": "(§1)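 Lung cancer cell lines were seeded in 1536-well plates and dosed by pin tool the next day, with either a single drug or a fixed anchor-drug dose combined with five library-drug doses (not always all listed) spaced in √10 steps. Five days later, one step fixed the cells and stained their nuclei (final 0.05% Triton X-100, 1% formaldehyde, 1 ug/ml Hoechst), and nuclei were counted on 4× images. Relative viability is the nuclei count in treated wells divided by the count in vehicle wells, and each value is the median of duplicate plates.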"}, "Ricolinostat + Lapatinib": {"compound": "O=C(CCCCCCNC(=O)c1cnc(N(c2ccccc2)c2ccccc2)nc1)NO [Ricolinostat] + CS(=O)(=O)CCNCc1ccc(-c2ccc3ncnc(Nc4ccc(OCc5cccc(F)c5)c(Cl)c4)c3c2)o1 [Lapatinib] (partner 2 µM)", "in_short": "as §1"}, "Ricolinostat + Dasatinib": {"compound": "O=C(CCCCCCNC(=O)c1cnc(N(c2ccccc2)c2ccccc2)nc1)NO [Ricolinostat] + Cc1nc(Nc2ncc(C(=O)Nc3c(C)cccc3Cl)s2)cc(N2CCN(CCO)CC2)n1 [Dasatinib] (partner 0.075 µM)", "in_short": "as §1"}, "TGX 221 + Luminespib": {"compound": "CC1=CN2C(=O)C=C(N=C2C(=C1)C(C)NC3=CC=CC=C3)N4CCOCC4 [TGX 221] + CCNC(=O)c1noc(-c2cc(C(C)C)c(O)cc2O)c1-c1ccc(CN2CCOCC2)cc1 [Luminespib] (partner 0.01 µM)", "in_short": "as §1"}, "TGX 221 + Phenformin": {"compound": "CC1=CN2C(=O)C=C(N=C2C(=C1)C(C)NC3=CC=CC=C3)N4CCOCC4 [TGX 221] + N=C(N)NC(=N)NCCc1ccccc1 [Phenformin] (partner 250 µM)", "in_short": "as §1"}},
  "data": [
    {"cell line": "NCI-H1792", "values": [
      {"measurement": "relative viability", "setting": "[1]; first compound 0.253 µM", "result": 0.441},
      {"measurement": "relative viability", "setting": "[1]; first compound 0.8 µM", "result": 0.354},
      {"measurement": "relative viability", "setting": "[1]; first compound 2.53 µM", "result": 0.704},
      {"measurement": "relative viability", "setting": "[1]; first compound 8 µM", "result": 0.276},
      {"measurement": "relative viability", "setting": "Ricolinostat + Lapatinib; first compound 0.08 µM", "result": 0.719},
      {"measurement": "relative viability", "setting": "Ricolinostat + Lapatinib; first compound 0.253 µM", "result": 0.918},
      {"measurement": "relative viability", "setting": "Ricolinostat + Lapatinib; first compound 0.8 µM", "result": 0.863},
      {"measurement": "relative viability", "setting": "Ricolinostat + Lapatinib; first compound 2.53 µM", "result": 1.01},
      {"measurement": "relative viability", "setting": "Ricolinostat + Dasatinib; first compound 0.253 µM", "result": 0.829},
      {"measurement": "relative viability", "setting": "Ricolinostat + Dasatinib; first compound 0.8 µM", "result": 0.718},
      {"measurement": "relative viability", "setting": "Ricolinostat + Dasatinib; first compound 2.53 µM", "result": 0.882},
      {"measurement": "relative viability", "setting": "TGX 221 + Luminespib; first compound 0.08 µM", "result": 0.52},
      {"measurement": "relative viability", "setting": "TGX 221 + Luminespib; first compound 0.253 µM", "result": 0.498},
      {"measurement": "relative viability", "setting": "TGX 221 + Luminespib; first compound 0.8 µM", "result": 0.418},
      {"measurement": "relative viability", "setting": "TGX 221 + Luminespib; first compound 2.53 µM", "result": 0.375},
      {"measurement": "relative viability", "setting": "TGX 221 + Luminespib; first compound 8 µM", "result": 0.293},
      {"measurement": "relative viability", "setting": "TGX 221 + Phenformin; first compound 0.8 µM", "result": 0.249},
      {"measurement": "relative viability", "setting": "TGX 221 + Phenformin; first compound 2.53 µM", "result": 0.319},
      {"measurement": "relative viability", "setting": "TGX 221 + Phenformin; first compound 8 µM", "result": 0.283}
    ]}
  ]
}
